Laboratory results from paper PMC10458360, “Assembling a Cinnamyl Pharmacophore in the C3-Position of Substituted Isatins via Microwave-Assisted Synthesis: Development of a New Class of Monoamine Oxidase-B Inhibitors for the Treatment of Parkinson’s Disease” (Molecules, 2023).

Legend:
[1] = target: T1, MAO-A (Homo sapiens, UniProt P21397); experiment: Inhibition of MAO-A (kynuramine, continuous absorbance assay); conditions: for remaining activity at 10 µM: read-out: Residual Activity at 10 µM (%) MAO-A
T1 sequence (P21397 1-527): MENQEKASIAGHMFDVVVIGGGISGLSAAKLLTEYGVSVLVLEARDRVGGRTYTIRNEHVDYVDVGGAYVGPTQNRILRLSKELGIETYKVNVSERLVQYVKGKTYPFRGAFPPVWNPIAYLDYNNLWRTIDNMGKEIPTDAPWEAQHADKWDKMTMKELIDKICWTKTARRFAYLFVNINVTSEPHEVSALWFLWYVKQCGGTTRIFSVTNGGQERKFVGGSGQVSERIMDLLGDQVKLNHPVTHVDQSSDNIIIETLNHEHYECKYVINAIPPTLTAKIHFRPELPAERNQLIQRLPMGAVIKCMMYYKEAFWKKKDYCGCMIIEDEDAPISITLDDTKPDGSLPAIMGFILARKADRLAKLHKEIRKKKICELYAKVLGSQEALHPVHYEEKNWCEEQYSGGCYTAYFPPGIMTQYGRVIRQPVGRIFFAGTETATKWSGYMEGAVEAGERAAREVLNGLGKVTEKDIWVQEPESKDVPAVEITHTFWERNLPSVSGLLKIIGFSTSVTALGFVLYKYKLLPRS

[2] = target: T2, MAO-B (Homo sapiens, UniProt P27338); experiment: biochemical; conditions: 0.3 mM benzylamine; for IC50: IC50 (µM) MAO-B, limit 40 µM; for remaining activity at 10 µM: read-out: Residual Activity at 10 µM (%) MAO-B, 10 µM compound
T2 sequence (P27338 1-520): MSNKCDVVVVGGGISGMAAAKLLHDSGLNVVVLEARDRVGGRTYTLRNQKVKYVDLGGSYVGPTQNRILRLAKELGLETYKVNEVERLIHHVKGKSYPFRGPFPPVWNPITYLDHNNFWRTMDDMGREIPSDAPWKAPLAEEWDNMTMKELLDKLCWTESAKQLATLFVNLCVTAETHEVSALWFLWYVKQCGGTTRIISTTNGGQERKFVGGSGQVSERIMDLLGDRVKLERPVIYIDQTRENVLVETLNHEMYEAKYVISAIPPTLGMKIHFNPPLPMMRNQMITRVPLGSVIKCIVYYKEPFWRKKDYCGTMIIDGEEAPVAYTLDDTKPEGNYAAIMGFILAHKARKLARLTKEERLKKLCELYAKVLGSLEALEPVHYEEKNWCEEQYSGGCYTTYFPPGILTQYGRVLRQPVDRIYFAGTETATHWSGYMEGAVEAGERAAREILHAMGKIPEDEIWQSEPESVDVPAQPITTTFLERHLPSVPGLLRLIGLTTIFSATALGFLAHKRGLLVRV

[3] = tested on: MAO-B; conditions: cited from earlier work
[4] = target: T2, MAO-B; conditions: for SI (selectivity index): IC50 for MAO-A/IC50 for MAO-B
[5] = target: T2, MAO-B; experiment: Reversibility of MAO-B inhibition by dialysis; format: biochemical; conditions: for Residual activity, dialyzed (AD): dialyzed 6 h, two buffer changes
[6] = target: T2, MAO-B; experiment: MAO-B enzyme kinetics (Lineweaver-Burk and secondary plot); format: biochemical
[7] = tested on: SH-SY5Y cells; experiment: Neuroprotection on rotenone-induced SH-SY5Y cells by MTT assay; format: cell-based
[8] = tested on: MAO; set-up: method as in PMID 27374845; conditions: cited from earlier work
[9] = ~2.0 times IC50, preincubation 30 min

Row | Compound | IC50 [1] [µM] | remaining activity at 10 µM [1] [%] | IC50 [2] [µM] | remaining activity at 10 µM [2] [%] | other results
1 | COc1ccc(C=CC=NN=C2C(=O)Nc3ccc(Cl)cc32)cc1 [IHMC4] | > 40 | 81.46 ± 0.77 | > 40 | 76.5 ± 3.27 | 
2 | O=C1Nc2ccc(Br)cc2C1=O [Compound 1f] |  |  |  |  | IC50 [3]: 0.125 µM
3 | O=C1Nc2ccc(Cl)cc2C1=NN=CC=Cc1ccc([N+](=O)[O-])cc1 [IHNC4] | > 40 | 82.3 ± 0.99 | 26.5 ± 0.6 | 74.5 ± 4.63 | SI (selectivity index) [4]: >1.51
4 | O=C1Nc2ccc(OCc3ccc(Cl)c(Cl)c3)cc2C1=O [A3] |  |  |  |  | IC50 [3]: 0.003 µM
5 | COc1ccc(C=CC=NN=C2C(=O)Nc3ccccc32)cc1 [IHMC1] | > 40 | 89.9 ± 1.3 | > 40 | 96.89 ± 0.95 | 
6 | O=C1Nc2ccc(Br)cc2C1=NN=CC=Cc1ccc([N+](=O)[O-])cc1 [IHNC2] | > 40 | 88.5 ± 0.71 | 22 ± 0.354 | 71.2 ± 1.99 | SI (selectivity index) [4]: >1.82
7 | C[C@H](NCc1ccc(OCc2cccc(F)c2)cc1)C(N)=O [Safinamide, reference compound] |  |  |  |  | Residual activity, dialyzed (AD) [5, 9]: 85.86%
8 | O=C1Nc2ccc(Br)cc2C1=NN=CC=Cc1ccccc1 [IHC2] | > 40 | 92.37 ± 0.52 | 16.9 ± 0.397 | 61.4 ± 3.42 | SI (selectivity index) [4]: >2.36
9 | C#CCN1C(=O)/C(=N/NC(=O)c2ccc3c(c2)OCO3)c2ccccc21 [Compound 3] |  |  |  |  | IC50 [3]: 0.034 µM
10 | O=C1Nc2ccc(F)cc2/C1=N/N=CC=Cc1ccccc1 [IHC3] | > 40 | 76.9 ± 1.55 | 1.67 |  | Reversibility of MAO-B inhibition ([5]; dialysis): reversible MAO-B inhibitor; Residual activity, dialyzed (AD) [5, 9]: 72.05%; Residual activity, undialyzed (AU) ([5]; ~2.0 times IC50, preincubation 30 min, undialyzed): 32.87%; SI (selectivity index) [4]: >23.92; Times higher MAO-B inhibition than IHMC2 ([4]; ratio of IC50 values): 15.07 times; Times higher MAO-B inhibition than IHNC2 ([4]; ratio of IC50 values): 13.15 times; Type of MAO-B inhibition ([6]; Lineweaver-Burk plot): competitive MAO-B inhibitor; Ki ([6]; secondary plot, benzylamine substrate): 0.51 ± 0.15 µM; Cell viability trend ([7]; 25 µg/mL IHC3, rotenone-induced cells, MTT): viability decreased; viability at 12.5 µg/mL ([7]; Homo sapiens, SH-SY5Y, 12.5 µg/mL IHC3, rotenone-induced cells, MTT, 24 h, read-out: Cell viability (maximum)): 89.7%; Cell death caused by rotenone ([7]; SH-SY5Y neuroblastoma cells): greatly decreased the cell death
11 | O=C1Nc2ccccc2C1=NN=CC=Cc1ccc([N+](=O)[O-])cc1 [IHNC1] | > 40 | 88.7 ± 2.4 | > 40 | 96.9 ± 3.36 | 
12 | Cc1ccc2c(c1)C(=NN=CC=Cc1ccc([N+](=O)[O-])cc1)C(=O)N2 [IHNC6] | > 40 | 87.2 ± 1.13 | > 40 | 81.1 ± 6.4 | 
13 | COc1ccc(C=CC=NN=C2C(=O)Nc3ccc(F)cc32)cc1 [IHMC3] | > 40 | 85.5 ± 6.42 | > 40 | 81.3 ± 4.61 | 
14 | O=C(CN1CCc2cc(OCc3ccccc3)ccc21)N1CCN(CCO)CC1 [Compound 14] |  |  |  |  | IC50 [3]: 8.65 µM
15 | O=C1Nc2ccccc2C1=NN=CC=Cc1ccccc1 [IHC1] | > 40 | 94.5 ± 2.1 | > 40 | 89.3 ± 3 | 
16 | COc1ccc(C=CC=NN=C2C(=O)Nc3ccc(C)cc32)cc1 [IHMC6] | > 40 | 89.8 ± 2.55 | > 40 | 91.8 ± 3.48 | 
17 | COc1ccc2c(c1)C(=NN=CC=Cc1ccccc1)C(=O)N2 [IHC5] | > 40 | 82.3 ± 1.8 | > 40 | 75.8 ± 6.17 | 
18 | Cc1ccc2c(c1)C(=NN=CC=Cc1ccccc1)C(=O)N2 [IHC6] | > 40 | 98.1 ± 1.55 | > 40 | 79.4 ± 3.25 | 
19 | O=C1Nc2ccc(Cl)cc2C1=NN=CC=Cc1ccccc1 [IHC4] | > 40 | 86.7 ± 1.78 | 27.5 ± 1.15 | 73.9 ± 8.87 | SI (selectivity index) [4]: >1.46
20 | O=C1Nc2ccccc2C1=O [isatin, 1H-indole-2,3-dione] |  |  |  |  | IC50 [8]: ~3 µM
21 | COc1ccc(C=CC=NN=C2C(=O)Nc3ccc(Br)cc32)cc1 [IHMC2] | > 40 | 86.63 ± 0.52 | 25.19 ± 0.147 | 78.1 ± 1.12 | SI (selectivity index) [4]: >1.59
22 | COc1ccc(C=CC=NN=C2C(=O)Nc3ccc(OC)cc32)cc1 [IHMC5] | > 40 | 84.48 ± 0.73 | > 40 | 85.6 ± 4.27 | 
23 | COc1ccc2c(c1)C(=NN=CC=Cc1ccc([N+](=O)[O-])cc1)C(=O)N2 [IHNC5] | > 40 | 88.6 ± 1.98 | > 40 | 82 ± 1.05 | 
24 | O=C1Nc2ccc(F)cc2C1=NN=CC=Cc1ccc([N+](=O)[O-])cc1 [IHNC3] | > 40 | 80.4 ± 0.57 | > 40 | 78.9 ± 3.35 | 
